In patent EP3782622A1, “ADENOSINE A2B RECEPTOR AGONIST FOR THE TREATMENT OF MUSCU[…]” (Rheinische Friedrich-Wilhelms-Universität Bonn, priority 2019, dated 2021):

Legend:
Mäusen [1] = test: Muscle mass in mice after treatment (muscle analysis/sarcopenia); type: in vivo, Mäuse; settings: Abbildung 6; for Muskelmasse: mice, 1 mg/kg intraperitoneal once daily for four weeks
Source text: (§1) WT männliche C57BL/6 Mäuse wurden von Janvier gekauft. A2B-/- Mäuse wurden von M. Idzko, Freiburg, Deutschland, zur Verfügung gestellt. ATA2B-KO (A2Bfloxed/floxed;AdipoCre+) und Con-A2B (A2Bfloxed/floxed;AdipoCre-) Mäuse wurden durch Züchtung von A2Bfloxed/floxed Mäusen (erzeugt von Holger K. Eltzschig) mit Adiponectin-Cre (Jackson Laboratories) Mäusen zur Herstellung von A2Bfloxed;AdipoCre+ heterozygoten Mäusen erzeugt. Heterozygote Mäuse wurden mit A2Bfloxed/floxed gezüchtet. Männliche Wurfgeschwister wurden zufällig experimentellen Gruppen zugeordnet. Halbfettdiät (HFD, 60% Energie aus Fett) und Kontrolldiät wurden von ssniff Spezialdiäten GmbH (Soest, DE) gekauft. Mäuse wurden in einem täglichen Zyklus von 12 Stunden Licht (0600 bis 1800) und 12 Stunden Dunkelheit (1800 bis 0600) bei 23 ± 1°C gehalten und erhielten freien Zugang zu Futter und Wasser. Für die Muskelanalyse/Sarkopenie wurden Mäusen vier Wochen lang einmal täglich intraperitoneal mit 1 mg/kg 2-({6-Amino-3,5-dicyano-4-[4-(cyclopropylmethoxy)-phenyl]-pyridin-2-yl}sulfanyl)-acetamid (Bay 60-6583) injiziert.

[2] = tested on: primäre humane Skelettmuskelzellen; test: Glucose uptake test (abcam kit ab136956); type: cell-based; settings: primary human skeletal muscle cells, Abbildung 5
Source text: Die Glukoseaufnahme wurde mit murinen und humanen SKM-Zellen unter Verwendung des Glukoseaufnahmekits von abcam (ab136956) (abcam plc., Cambridge, UK) nach Herstellerangaben gemessen.

Mäusen [3] = test: Muscle strength of mice after treatment; type: in vivo, Mäuse; settings: Abbildung 8; for Muskelkraft: mice
Source text: as §1
Extensor digitorum longus (EDL) Muskeln aus den Hinterbeinen von Mäusen wurden von Sehne zu Sehne isoliert, in eine wässrige Pufferlösung aus Krebs-Puffer (118 mM NaCl, 3,4 mM KCl, 0,8 mM MgSO4, 1,2 mM KH2PO4, 11,1 mM Glukose, 25 mM NaHCO3, 2,5 mM CaCl2) getaucht und bei Raumtemperatur mit Carbogen (ein Gasgemisch aus 5 Volumenteilen Kohlenstoffdioxid (CO2) und 95 Volumenteilen Sauerstoff (O2)) umspült. Die Muskeln wurden zwischen der Klemme eines Hebelarms und dem Haken eines Kraftaufnehmers eines Myographen (SI Instruments) ausgerichtet. Dann wurden die Muskeln gedehnt, bis ein einzelner Impuls während einer Zuckungsstimulation die maximale Kraft hervorrief. Es wurden Zuckungsstimulationen (2 V, 1 ms) für […] aufgezeichnet und die Kraft gemessen. Die gesamte Muskelquerschnittsfläche wurde geschätzt, indem die Muskelmasse durch das Produkt aus der Muskellänge, dem Verhältnis von […] (0,44 bei EDL) und der Dichte des Säugetiermuskels (1,06 mg/mm^3) dividiert wurde. […]

Satellitenzellen = test: Isolation and amount of satellite cells from treated old mice; type: in vivo, Mäuse; settings: 1 mg/kg once daily for four weeks
Source text: as §1, with “injiziert. […]” for “injiziert.”

[4] = tested on: primären humanen Skelettmuskelzellen; test: Endogenous respiration (Oxygraph 2K): oxygen consumption of primary human skeletal muscle cells; type: cell-based
Experimental: (§2) Skelettmuskelzellen oder -gewebe wurden 15 Minuten vor den […] Messungen wie angegeben behandelt (Oxygraph 2K; Oroboros Instruments). Die Proben wurden in die Oxygraphenkammer mit 2 ml Inkubationsmedium (0,5 mM Ethylenglycol-bis(aminoethylether)-N,N,N',N'-tetraessigsäure (EGTA), 3 mM MgCl2 · 6 H2O, 60 mM K-Lactobionat, 20 mM Taurin, 10 mM KH2PO4, 20 mM 2-(4-(2-Hydroxyethyl)-1-piperazinyl)-ethansulfonsäure (HEPES), 110 mM Saccharose und 1 g/l Bovines Serumalbumin (BSA), pH 7,1) gebracht. In vitro-Atmungswerte wurden bei Erreichen eines stationären Zustandes aufgezeichnet, gefolgt von der Zugabe von Substraten (Zustand 1: endogen; Zustand 2: Adenosindiphosphat (ADP); Zustand 3: Succinat; Zustand 4: Oligomycin; entkoppelt: 2,4-dinitrophenol, carbonylcyanide p-trifluoromethoxyphenyl-hydrazine (FCCP)). Die Atmungsraten wurden auf den Gesamtproteingehalt normalisiert.

murinem Muskelgewebe = test: Endogenous respiration (Oxygraph 2K): oxygen consumption of murine muscle tissue ex vivo; type: cell-based, murin; settings: Abbildung 2
Experimental: as §2

[5] = tested on: humanen Skelettmuskel-Explantaten; test: Endogenous respiration (Oxygraph 2K): oxygen consumption of human skeletal muscle explants; type: cell-based; settings: treated 15 min before measurement
Experimental: as §2

`N#Cc1c(N)nc(SCC(N)=O)c(C#N)c1-c1ccc(OCC2CC2)cc1` [BAY 60-6583, 2-({6-Amino-3,5-dicyano-4-[4-(cyclopropylmethoxy)-phenyl]pyridin-2-yl}sulfanyl)-acetamid] was tested, and the Muskelmasse (Mäusen [1]; 1 mg/kg) was “dem alterungsbedingten Verlust von Muskelmasse entgegenwirkt”, the Muskelmasse (Mäusen [1]; listed as Bay 60-6583, 1 mg/kg) was “signifikant gesteigert” and the “Muskelmasse, treated aged mice compared with young controls” value (Mäusen [1]; treated aged (20 months) mice vs young (2 months) control animals) was “vergleichbare Muskelmasse wie junge (2 Monate alte) Kontrolltiere”. The “Aufnahme von Glukose” value [2] was “signifikant erhöht”, the “Aufnahme von Glukose” value ([2]; listed as Bay 60-6583) was “signifikant gesteigert” and the Muskelkraft (Mäusen [3]) was “signifikant erhöht”. For the same compound, the Muskelkraft (Mäusen [3]; listed as Bay 60-6583) was “signifikant gesteigert”, the “Muskelkraft, treated aged mice compared with young controls” value (Mäusen [3]; treated aged mice vs young control animals) was “so viel Kraft wie junge Kontrolltiere” and the “Menge an Satellitenzellen” value (Satellitenzellen; Abbildung 9, 1 mg/kg) was “erhöht”. The “Menge an Satellitenzellen” value (Satellitenzellen; Abbildung 9, listed as Bay 60-6583, 1 mg/kg) was “signifikant erhöht”, the “Sauerstoffverbrauch in Bezug auf das veratmete Protein” value ([4]; Abbildung 4) was “signifikant erhöht” and the “Sauerstoffverbrauch in Bezug auf das veratmete Protein” value ([4]; Abbildung 4, listed as Bay 60-6583) was “signifikant gesteigert”. The Sauerstoffverbrauch (murinem Muskelgewebe) was “signifikant erhöht”, the “Sauerstoffverbrauch in Bezug auf die Gewebemasse” value ([5]; Abbildung 1) was “signifikant erhöht” and the “Sauerstoffverbrauch in Bezug auf die Gewebemasse” value ([5]; Abbildung 1, listed as Bay 60-6583) was “signifikant gesteigert”.
